The values that follow come from ChEMBL document CHEMBL4346710, “Discovery of 7H-pyrrolo[2,3-d]pyrimidine derivatives as selective covalent irreversible inhibitors of interleukin-2-inducible T-cell kinase (Itk)” (Eur J Med Chem, 2019).

Structures are written as SMILES. Active and inactive are the calls of the source. The rule behind the calls is not given here.

Assay [1] has as its target T1, Tyrosine-protein kinase JAK3 (Homo sapiens, UniProt P52333).
T1 sequence (P52333 whole entry): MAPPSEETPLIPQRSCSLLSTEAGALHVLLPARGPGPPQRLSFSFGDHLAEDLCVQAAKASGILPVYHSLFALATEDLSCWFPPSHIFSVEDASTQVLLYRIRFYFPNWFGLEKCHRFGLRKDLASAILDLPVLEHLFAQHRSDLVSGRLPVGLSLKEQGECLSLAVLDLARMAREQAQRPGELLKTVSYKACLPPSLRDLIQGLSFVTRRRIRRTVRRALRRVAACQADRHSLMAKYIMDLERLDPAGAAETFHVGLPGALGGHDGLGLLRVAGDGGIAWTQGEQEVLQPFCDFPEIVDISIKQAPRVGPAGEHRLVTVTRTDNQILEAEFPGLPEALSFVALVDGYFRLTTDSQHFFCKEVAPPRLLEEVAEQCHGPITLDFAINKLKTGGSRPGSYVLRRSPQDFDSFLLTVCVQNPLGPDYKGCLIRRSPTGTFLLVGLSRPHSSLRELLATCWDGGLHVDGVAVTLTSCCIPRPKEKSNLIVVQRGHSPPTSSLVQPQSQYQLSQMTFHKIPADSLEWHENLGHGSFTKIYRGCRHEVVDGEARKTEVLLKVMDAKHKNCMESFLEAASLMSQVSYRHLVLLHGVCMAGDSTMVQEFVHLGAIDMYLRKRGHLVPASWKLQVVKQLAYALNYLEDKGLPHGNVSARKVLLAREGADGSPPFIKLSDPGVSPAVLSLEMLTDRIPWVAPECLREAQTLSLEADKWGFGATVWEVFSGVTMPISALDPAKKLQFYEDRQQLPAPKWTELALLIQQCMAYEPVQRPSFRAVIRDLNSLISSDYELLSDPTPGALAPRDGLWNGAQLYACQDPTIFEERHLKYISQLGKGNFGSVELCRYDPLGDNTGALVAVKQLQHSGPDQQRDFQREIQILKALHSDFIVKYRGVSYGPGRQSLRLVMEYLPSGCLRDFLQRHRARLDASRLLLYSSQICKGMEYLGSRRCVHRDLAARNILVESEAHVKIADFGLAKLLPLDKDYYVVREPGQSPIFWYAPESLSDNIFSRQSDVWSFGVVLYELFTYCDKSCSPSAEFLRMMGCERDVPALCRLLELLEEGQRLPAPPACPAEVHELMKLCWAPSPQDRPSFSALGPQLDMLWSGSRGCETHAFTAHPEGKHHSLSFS
As to the kind of experiment: Inhibition of recombinant human N-terminal His6-tagged JAK3 (781 to end residues) expressed in baculovirus infected Sf21 cells using STK as substrate by HTRF assay. On the technique in general: Time-resolved FRET reads energy transfer from a long-lived donor to a nearby acceptor.

In assay [2] the target is Tyrosine-protein kinase BTK (Homo sapiens, UniProt Q06187). The assay can be described thus: Inhibition of recombinant human full-length N-terminal His6-tagged BTK expressed in baculovirus infected Sf21 insect cells using STK substrate by HTRF assay.
Sequence of Tyrosine-protein kinase BTK (Q06187 whole entry, the tested form may be a part): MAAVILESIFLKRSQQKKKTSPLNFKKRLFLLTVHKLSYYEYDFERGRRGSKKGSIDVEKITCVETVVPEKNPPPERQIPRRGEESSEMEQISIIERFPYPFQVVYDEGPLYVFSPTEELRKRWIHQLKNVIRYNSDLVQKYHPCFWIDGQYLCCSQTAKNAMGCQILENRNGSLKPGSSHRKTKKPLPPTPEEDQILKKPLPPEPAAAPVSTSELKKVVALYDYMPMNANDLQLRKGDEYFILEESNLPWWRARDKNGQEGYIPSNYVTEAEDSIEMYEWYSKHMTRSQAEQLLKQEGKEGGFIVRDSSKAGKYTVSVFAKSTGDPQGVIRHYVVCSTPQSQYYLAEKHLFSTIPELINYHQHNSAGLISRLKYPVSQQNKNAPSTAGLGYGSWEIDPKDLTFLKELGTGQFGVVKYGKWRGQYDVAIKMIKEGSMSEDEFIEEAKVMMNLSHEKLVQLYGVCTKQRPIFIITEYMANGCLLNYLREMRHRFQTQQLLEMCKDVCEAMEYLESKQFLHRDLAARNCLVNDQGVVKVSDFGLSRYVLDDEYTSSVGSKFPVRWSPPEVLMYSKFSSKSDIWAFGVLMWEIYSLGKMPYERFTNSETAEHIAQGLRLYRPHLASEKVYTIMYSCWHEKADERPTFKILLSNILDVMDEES
In assay [3] the target is Epidermal growth factor receptor (Homo sapiens, UniProt P00533). The assay can be described thus: Inhibition of recombinant human N-terminal GST-tagged EGFR kinase domain (696 to end residues) expressed in baculovirus infected Sf21 insect cells using STK as substrate by HTRF assay.
Sequence of Epidermal growth factor receptor (P00533 whole entry, the tested form may be a part): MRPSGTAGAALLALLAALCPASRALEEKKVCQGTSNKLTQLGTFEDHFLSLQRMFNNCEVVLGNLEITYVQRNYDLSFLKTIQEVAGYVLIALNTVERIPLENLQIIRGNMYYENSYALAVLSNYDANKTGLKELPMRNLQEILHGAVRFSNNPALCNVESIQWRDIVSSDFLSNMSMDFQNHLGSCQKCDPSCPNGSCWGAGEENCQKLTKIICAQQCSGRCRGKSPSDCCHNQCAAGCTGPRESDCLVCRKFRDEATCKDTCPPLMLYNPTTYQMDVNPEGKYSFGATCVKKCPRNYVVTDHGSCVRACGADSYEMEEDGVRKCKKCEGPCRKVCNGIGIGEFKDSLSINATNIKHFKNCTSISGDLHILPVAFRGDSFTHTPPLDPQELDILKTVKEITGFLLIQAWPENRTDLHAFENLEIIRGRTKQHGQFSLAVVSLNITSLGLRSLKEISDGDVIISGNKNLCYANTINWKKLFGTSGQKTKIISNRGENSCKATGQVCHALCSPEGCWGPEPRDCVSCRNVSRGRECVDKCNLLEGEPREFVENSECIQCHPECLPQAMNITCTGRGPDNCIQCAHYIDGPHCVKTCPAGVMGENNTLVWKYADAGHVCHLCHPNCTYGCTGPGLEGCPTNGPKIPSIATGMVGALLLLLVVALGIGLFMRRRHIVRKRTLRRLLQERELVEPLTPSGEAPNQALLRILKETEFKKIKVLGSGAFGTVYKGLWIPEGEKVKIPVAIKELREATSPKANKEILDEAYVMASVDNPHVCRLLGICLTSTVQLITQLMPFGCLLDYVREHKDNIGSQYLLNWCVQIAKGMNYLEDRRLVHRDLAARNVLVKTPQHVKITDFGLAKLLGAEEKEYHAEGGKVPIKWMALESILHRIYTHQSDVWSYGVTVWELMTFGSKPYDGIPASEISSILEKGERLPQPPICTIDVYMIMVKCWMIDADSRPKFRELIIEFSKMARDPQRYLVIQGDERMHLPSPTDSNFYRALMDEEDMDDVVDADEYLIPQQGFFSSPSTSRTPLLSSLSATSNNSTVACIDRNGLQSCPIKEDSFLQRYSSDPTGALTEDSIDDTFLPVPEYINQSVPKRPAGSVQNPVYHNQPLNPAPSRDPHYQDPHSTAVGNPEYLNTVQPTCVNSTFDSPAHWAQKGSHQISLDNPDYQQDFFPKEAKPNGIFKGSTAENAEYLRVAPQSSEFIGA
Assay [4] has as its target T2, Tyrosine-protein kinase ITK/TSK (Homo sapiens, UniProt Q08881).
T2 sequence (Q08881 whole entry): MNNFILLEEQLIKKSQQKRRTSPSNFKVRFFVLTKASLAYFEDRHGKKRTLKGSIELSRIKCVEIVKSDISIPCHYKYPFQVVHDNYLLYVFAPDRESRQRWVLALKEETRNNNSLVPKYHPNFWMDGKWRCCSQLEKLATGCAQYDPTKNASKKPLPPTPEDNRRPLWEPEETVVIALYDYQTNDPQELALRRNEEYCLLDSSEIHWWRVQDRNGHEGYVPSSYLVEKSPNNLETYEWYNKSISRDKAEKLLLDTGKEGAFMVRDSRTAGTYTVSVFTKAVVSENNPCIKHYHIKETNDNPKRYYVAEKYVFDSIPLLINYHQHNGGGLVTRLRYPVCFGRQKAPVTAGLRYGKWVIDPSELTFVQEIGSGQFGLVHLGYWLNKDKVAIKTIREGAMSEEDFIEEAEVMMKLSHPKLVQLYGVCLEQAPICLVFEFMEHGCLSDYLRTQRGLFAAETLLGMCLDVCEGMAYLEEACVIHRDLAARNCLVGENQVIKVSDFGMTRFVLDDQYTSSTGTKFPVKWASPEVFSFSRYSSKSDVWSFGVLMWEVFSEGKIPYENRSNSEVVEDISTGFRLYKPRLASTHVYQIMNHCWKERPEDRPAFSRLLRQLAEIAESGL
The assay can be described thus: Inhibition of recombinant human N-terminal His6-tagged ITK (352 to 617 residues) expressed in baculovirus infected Sf21 insect cells using STK substrate by HTRF assay.

The target in assay [5] is T3, Tyrosine-protein kinase ITK/TSK (Homo sapiens) (UniProt Q08881).
T3 sequence (whole entry): T2 sequence (Q08881 whole entry)
The assay can be described thus: Inhibition of ITK in human Jurkat cells assessed as reduction in anti-CD3/CD28-stimulated PLCgamma1 phosphorylation at 0.1 to 10000 nM preincubated for 2 hrs followed by anti-CD3/CD28 beads addition and measured after 30 min by Western blot analysis. In kind it is cell-based. For orientation: A western blot detects proteins with antibodies after separation by electrophoresis.

Assay [6] addresses T3, Tyrosine-protein kinase ITK/TSK (Homo sapiens). The assay can be described thus: Covalent binding affinity to recombinant human ITK assessed as binding to Cys442 residue at 50 uM incubated for 24 hrs prior to trypsin addition for 4 hrs and boiled for 3 min followed by chymotrypsin addition and measured after overnight incubation by LC/MS/MS analysis.
Assay [7] shares this target. As to the kind of experiment: Inhibition of recombinant human N-terminal His6-tagged ITK (352 to 617 residues) expressed in baculovirus infected Sf21 insect cells assessed as ratio of Kinact to Ki using STK substrate by HTRF assay.
For assay [8] the target is unchanged. The assay can be described thus: Inhibition of recombinant human N-terminal His6-tagged ITK (352 to 617 residues) expressed in baculovirus infected Sf21 insect cells assessed as inactivation rate constant using STK substrate by HTRF assay.
A further assay has as its system CCRF-CEM. As to the kind of experiment: Growth inhibition of human CCRF-CEM cells incubated for 72 hrs by CellTiter-Glo luminescent cell viability assay. In kind it is functional. A general note: Cellular ATP, detected with luciferase, serves as a proxy for viable cell number.
The subject of the next assay is Jurkat. As to the kind of experiment: Growth inhibition of human Jurkat cells incubated for 72 hrs by CellTiter-Glo luminescent cell viability assay. The class given is functional.
For a further assay, the system named is H9. As to the kind of experiment: Growth inhibition of human H9 cells incubated for 72 hrs by CellTiter-Glo luminescent cell viability assay. The class given is functional. The conditions noted are these: H9, 72 h.
In the next assay the test system is MOLT-4. The assay can be described thus: Growth inhibition of human MOLT4 cells incubated for 72 hrs by CellTiter-Glo luminescent cell viability assay. The class given is functional. The conditions noted are these: MOLT-4, 72 h.
A further assay deals with HEK-293T. As to the kind of experiment: Growth inhibition of HEK293T cells incubated for 72 hrs by CellTiter-Glo luminescent cell viability assay. The class given is functional. The conditions noted are these: Homo sapiens.
In assay [9] the target is T2, Tyrosine-protein kinase ITK/TSK. As to the kind of experiment: Inhibition of kinase tracer 236 binding to recombinant full length GST-tagged human ITK cytoplasmic domain expressed in baculovirus expression system incubated for 60 mins by Lanthascreen assay.
Assay [10] concerns the target T3, Tyrosine-protein kinase ITK/TSK (Homo sapiens). The assay can be described thus: Inhibition of human ITK at 1 uM using MAP as substrate in presence of [gamma33P]-ATP relative to control.
Assay [11] deals with Tyrosine-protein kinase Blk (Homo sapiens, UniProt P51451). As to the kind of experiment: Inhibition of BLK (unknown origin) using […] as substrate by HTRF assay.
Sequence of Tyrosine-protein kinase Blk (P51451 whole entry): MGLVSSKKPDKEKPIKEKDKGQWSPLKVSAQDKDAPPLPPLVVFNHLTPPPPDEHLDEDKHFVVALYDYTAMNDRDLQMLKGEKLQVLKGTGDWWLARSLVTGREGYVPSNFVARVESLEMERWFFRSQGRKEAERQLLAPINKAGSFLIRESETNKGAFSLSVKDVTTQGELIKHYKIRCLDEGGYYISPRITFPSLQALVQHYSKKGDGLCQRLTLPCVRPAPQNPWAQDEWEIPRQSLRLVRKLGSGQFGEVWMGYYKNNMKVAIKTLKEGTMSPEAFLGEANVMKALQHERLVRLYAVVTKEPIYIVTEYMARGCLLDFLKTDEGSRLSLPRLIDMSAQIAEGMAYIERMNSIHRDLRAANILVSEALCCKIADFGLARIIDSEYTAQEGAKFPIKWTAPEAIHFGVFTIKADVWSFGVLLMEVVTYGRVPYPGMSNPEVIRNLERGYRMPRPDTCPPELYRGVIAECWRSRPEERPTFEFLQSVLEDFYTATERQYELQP

What is called IC50 is the concentration needed to halve the response being measured. As for `C#CCCN1CCN(c2ccc(Nc3nc(OC4CCN(C(=O)C=C)CC4)c4c(-c5cncc(NC)n5)c[nH]c4n3)cc2)CC1`, the IC50 in [1] was 61 nM; in assay [2], more than 3000 nM; in assay [3] it was more than 3000 nM; in assay [4], 55 nM.
What is called inhibition is the share of the control response that was lost under treatment. For orientation: Ki means a measure of affinity in units of concentration, obtained from inhibition or displacement. `C=CC(=O)N1CCC[C@@H](Oc2nc(Nc3ccc(N4CCOCC4)cc3)nc3[nH]cc(-c4cncc(NC)n4)c23)C1`: the IC50 in assay [1] was 11 nM; in [2], 35 nM; in assay [3] it was 138 nM; in assay [4] it was less than 1.26 nM. In [5], the inhibition result was “Active”. Besides, the outcome in assay [6] was Active. In addition, the Ratio in [7] is 891 ×10³ /M.s. In [8], the K worked out at 0.31 min⁻¹. Further, the Ki in assay [4] was 5.8 nM.
Take `CNc1cncc(-c2c[nH]c3nc(Nc4ccc(N5CCN(C(C)=O)CC5)cc4)nc(OC4CCCCC4)c23)n1`: the IC50 in assay [1] turned out to be 104 nM; in [2], 1470 nM; in assay [3], 654 nM; in [4] it was 5.1 nM.
On to `C=CC(=O)N1CCC(Oc2nc(Nc3ccc(N4CCOCC4)cc3)nc3[nH]cc(-c4ccnc(NC)c4)c23)CC1`, for which the IC50 was 4.2 nM in [1], 36 nM in [2], 38 nM in [3] and less than 1.26 nM in assay [4].
What is called GI50 is the concentration at which growth is held to half of that of the control. A higher GI50 goes with lower sensitivity of the cells. Consider `C=CC(=O)N1CCC(Oc2nc(Nc3ccc(N4CCOCC4)cc3)nc3[nH]cc(-c4cncc(NC)c4)c23)CC1`, for which the GI50 in the assay with CCRF-CEM was 48 nM; in the assay on Jurkat, 188 nM; in the assay on H9, 190 nM; in the assay with MOLT-4, 109 nM; in the assay on HEK-293T, 270 nM. Also, the IC50 in assay [1] is 84 nM; in [2], 942 nM; in [3], more than 3000 nM; in assay [4], 3.6 nM.
As to `Nc1ccc(-c2c[nH]c3nc(Nc4ccc(N5CCOCC5)cc4)nc(Oc4ccccc4)c23)cc1`, the IC50 in assay [9] was more than 10000 nM.
In the case of `C=CC(=O)N1CCC(Oc2nc(Nc3ccc(N4CCOCC4)cc3)nc3[nH]cc(-c4cccc(NC)n4)c23)CC1`, the IC50 in assay [1] is 1430 nM; in [2] it was more than 10000 nM; in [3] it was more than 3000 nM; in [4], 74 nM.
In the case of `C=CC(=O)N1CCC[C@H](Oc2nc(Nc3ccc(N4CCN(C(C)=O)CC4)cc3)nc3[nH]cc(-c4cncc(NC)n4)c23)C1`, the half-inhibitory concentration (IC50) is more than 10000 nM in assay [2] and 375 nM in assay [4].
For `C=CC(=O)N1CCC[C@H]1COc1nc(Nc2ccc(N3CCN(C(C)=O)CC3)cc2)nc2[nH]cc(-c3cncc(NC)n3)c12`, the IC50 turned out to be 3.7 nM in assay [1], 434 nM in assay [2], 1970 nM in assay [3] and 7.8 nM in [4].
Taken in the same sequence, the figures for `CNc1cncc(-c2c[nH]c3nc(Nc4ccc(N5CCN(C(C)=O)CC5)cc4)nc(OC4CCOCC4)c23)n1` were 186 nM, 1610 nM, 937 nM and 7.1 nM.
Taken in the same sequence, the figures for `C=CC(=O)N1CCC[C@@H]1COc1nc(Nc2ccc(N3CCN(C(C)=O)CC3)cc2)nc2[nH]cc(-c3cncc(NC)n3)c12` were 69 nM, 286 nM, 150 nM and 2.2 nM.
As to `C=CC(=O)N1CCC[C@@H](Oc2nc(Nc3ccc(N4CCN(C(C)=O)CC4)cc3)nc3[nH]cc(-c4cncc(NC)n4)c23)C1`, the IC50 in [1] is 24 nM; in assay [2], 270 nM; in assay [3] it was 499 nM; in assay [4], 3.7 nM. For the same compound, the inhibition entry in assay [5] was “Active”. Besides, the Ratio in [7] worked out at 153 ×10³ /M.s. Moreover, the K in assay [8] stood at 0.31 min⁻¹. Besides, the Ki in assay [4] was 33.7 nM.
In the case of `C=CC(=O)N1CCC[C@@H](Oc2nc(Nc3ccc(N4CCN(CC)CC4)cc3)nc3[nH]cc(-c4cncc(NC)n4)c23)C1`, the IC50 in assay [1] is 1.2 nM; in [2], 26 nM; in assay [3] it was 8.7 nM; in assay [4] it was 1.3 nM.
`C=CC(=O)Nc1cccc(Oc2nc(Nc3ccc(N4CCN(C)CC4)c(F)c3)nc3[nH]ccc23)c1`: the inhibition in assay [10] was found to be 80%.
`C=CC(=O)Nc1cccc(Oc2nc(Nc3ccc(N4CCN(C(C)=O)CC4)cc3)nc3[nH]cc(-c4cncc(NC)n4)c23)c1`: the IC50 came to 8 nM in assay [2] and 5.4 nM in assay [4].
As to `CNc1cncc(-c2c[nH]c3nc(Nc4ccc(N5CCN(C(C)=O)CC5)cc4)nc(Oc4ccccc4)c23)n1`, the IC50 in assay [1] was 470 nM; in assay [2], 1460 nM; in assay [3] it was 1050 nM; in [4], 5.4 to 19 nM.
With `C=CC(=O)Nc1cccc(Oc2nc(Nc3ccc(N4CCOCC4)cc3)nc3[nH]cc(-c4ccncc4)c23)c1`, the 50% inhibitory concentration (IC50) stood at 0.6 nM in assay [1]; 0.7 nM in assay [11]; 3.9 nM in assay [2]; 2.3 nM in [3]; 0.5 nM in assay [4].
Consider `C=CC(=O)N1CCC(Oc2nc(Nc3ccc(N4CCN(C(C)=O)CC4)cc3)nc3[nH]cc(-c4cncc(NC)n4)c23)CC1`, for which the IC50 stood at 51 nM in assay [1], 1480 nM in [2], 903 nM in assay [3] and 2.3 nM in assay [4].
With `COc1ccc(-c2c[nH]c3nc(Nc4ccc(N5CCOCC5)cc4)nc(Oc4ccccc4)c23)cc1`, the IC50 in assay [9] was more than 10000 nM.
